US12065648B2, “Methods and compositions for inhibiting detoxification response” (priority 2015, dated 2024)

Assays:
[1] = system: cyp-31a3 transcriptional GFP fusion gene; format: in vivo, C. elegans; conditions: n = 20
Description: (§1) G418 (GoldBio) or hygromycin (GoldBio) was diluted in M9 to the desired concentration and added onto preseeded OP50 E. coli bacteria containing NGM plates. The plates were dried uncovered in the hood for at least 1 hour before seeding the worms. For the drug experiments, synchronized L1-stage animals were dropped onto the drug containing plates and scored later. For drug resistance assays synchronized L1 larval stage animals of the appropriate genotype were fed with either control RNAi or with RNAi clones targeting bile acid biosynthetic pathways until they reach day two of adulthood. Subsequently, the RNAi-treated animals were egg-prepped to obtain synchronized L1 larvae. ˜100 L1 larvae were added to the plates containing G418. 100 nM of Δ^4-Dafachronic Acid or (25S)-Δ^7-Dafachronic Acid from Cayman Chemical were used.
(§2) Nematodes were mounted onto agar pads and images were taken using a Zeiss AXIO Imager Z1 microscope fitted with a Zeiss AxioCam HRm camera and Axiovision 4.6 (Zeiss) software. Fluorescent images were converted to 16-bit images, thresholded and quantified using ImageJ. Student's t test was used determine statistical significance.
(§3) Inactivation of C. elegans translation components by feeding the animals E. coli expressing specific dsRNAs targeting translation factor mRNAs induces the expression of xenobiotic detoxification genes, bacterial pathogen response genes, and aversion behavior2-4 (FIG. 1A-C; Table 1, 2 and 3). Toxins, such as the eukaryotic translation inhibitors G418 produced by the bacteria Micromonospora rhodorangea5 or hygromycin, produced by the soil bacteria Streptomyces hygroscopicus6 also induce these responses.
(§4) Detoxification responses in animals include, cytochrome P450's (CYPs), UDP-glucuronosyltransferases (UGTs), glutathione S-transferases (GSTs), and p-glycoprotein transporters (PGPs) (FIGS. 1A & 1C; FIG. 6 A-B; Table 1, 2 and 3). We chose a pgp-5::gfp fusion gene for assays of xenobiotic detoxification induction in response to G418 or hygromycin or ribosomal assaults via RNAi (FIGS. 1A & C; FIG. 6 A-B; Table 1, 2 and 3) because of the robust response of this reporter gene and validation of this gene induction from microarray gene expression analysis in response to translational inhibition by toxins or RNAi4.

[2] = system: cyp-25a2 transcriptional GFP fusion gene; format: in vivo, C. elegans; conditions: n = 20
Description: as §1, §2, §3, §4

[3] = system: cyp-35B1 transcriptional GFP fusion gene; format: in vivo, C. elegans; conditions: n = 20
Description: as §1, §2, §3, §4

[4] = system: cyp-37A1 transcriptional GFP fusion gene; format: in vivo, C. elegans; conditions: n = 20
Description: as §1, §2, §3, §4

[5] = system: cyp-34A9 transcriptional GFP fusion gene; format: in vivo, C. elegans; conditions: n = 20
Description: as §1, §2, §3, §4

[6] = system: cyp-13a7 transcriptional GFP fusion gene; format: in vivo, C. elegans; conditions: n = 20
Description: as §1, §2, §3, §4

[7] = system: cyp-14A3 transcriptional GFP fusion gene; format: in vivo, C. elegans; conditions: n = 20
Description: as §1, §2, §3, §4

[8] = system: mrp-2 transcriptional GFP fusion gene; assay: Transcriptional GFP fusion gene induction: mrp-2; format: in vivo, C. elegans; conditions: n = 20
Description: as §1
as §2, with “significance. […]” for “significance.”

[9] = system: ugt-8 transcriptional GFP fusion gene; assay: Transcriptional GFP fusion gene induction: ugt-8; format: in vivo, C. elegans; conditions: n = 20
Description: as §1
as §2, with “significance. […]” for “significance.”

[10] = system: ugt-58 transcriptional GFP fusion gene; assay: Transcriptional GFP fusion gene induction: ugt-58; format: in vivo, C. elegans; conditions: n = 20
Description: as §1
as §2, with “significance. […]” for “significance.”

[11] = system: dhs-9 transcriptional GFP fusion gene; assay: Transcriptional GFP fusion gene induction: dhs-9; format: in vivo, C. elegans; conditions: n = 20
Description: as §1
as §2, with “significance. […]” for “significance.”

[12] = system: pgp-6 transcriptional GFP fusion gene; assay: Transcriptional GFP fusion gene induction: pgp-6; format: in vivo, C. elegans; conditions: n = 20
Description: as §1
as §2, with “significance. […]” for “significance.”

[13] = system: ugt-61 transcriptional GFP fusion gene; assay: Transcriptional GFP fusion gene induction: ugt-61; format: in vivo, C. elegans; conditions: n = 20
Description: as §1
as §2, with “significance. […]” for “significance.”

[14] = system: pgp-9 transcriptional GFP fusion gene; assay: Transcriptional GFP fusion gene induction: pgp-9; format: in vivo, C. elegans; conditions: n = 20
Description: as §1
as §2, with “significance. […]” for “significance.”

[15] = system: pmp-4 transcriptional GFP fusion gene; assay: Transcriptional GFP fusion gene induction: pmp-4; format: in vivo, C. elegans; conditions: n = 20
[16] = system: abch-1 transcriptional GFP fusion gene; assay: Transcriptional GFP fusion gene induction: abch-1; format: in vivo, C. elegans; conditions: n = 20
Description: as §1
as §2, with “significance. […]” for “significance.”

[17] = system: ugt-22 transcriptional GFP fusion gene; assay: Transcriptional GFP fusion gene induction: ugt-22; format: in vivo, C. elegans; conditions: n = 20
Description: as §1
as §2, with “significance. […]” for “significance.”

[18] = system: pgp-3 transcriptional GFP fusion gene; assay: Transcriptional GFP fusion gene induction: pgp-3; format: in vivo, C. elegans; conditions: n = 20
Description: as §1
as §2, with “significance. […]” for “significance.”

[19] = system: haf-7 transcriptional GFP fusion gene; assay: Transcriptional GFP fusion gene induction: haf-7; format: in vivo, C. elegans; conditions: n = 20
Description: as §1
as §2, with “significance. […]” for “significance.”

pgp-5::gfp [20] = assay: pgp-5::gfp induction in animals without germline translation mutation (toxin, RNAi, bile acids, lipid extracts); format: in vivo, C. elegans; conditions: pgp-5 transcriptional GFP fusion gene; n = 20
Description: as §1
Nematodes were mounted onto agar pads and images were taken using a Zeiss AXIO Imager Z1 microscope fitted with a Zeiss AxioCam HRm camera and Axiovision 4.6 (Zeiss) software. Fluorescent images were converted to 16-bit images, thresholded and quantified using ImageJ. […]
RNAi bacteria expressing the dsRNA corresponding to each worm gene were grown in LB media with 25 μg/ml carbenicillin overnight and seeded onto RNAi agar plates containing 1 mM IPTG. […] In the primary screen, the plates were screened visually for changes in GFP fluorescence and worm developmental defects. […]

[21] = system: pgp-4 transcriptional GFP fusion gene; assay: Transcriptional GFP fusion gene induction: pgp-4; format: in vivo, C. elegans; conditions: n = 20
C. elegans [22] = assay: Drug resistance assay (G418 or hygromycin) after RNAi; format: in vivo; conditions: control RNAi treated wildtype animals; 0.2 mg/ml G418
Description: as §1

[23] = system: dhs-19 transcriptional GFP fusion gene; assay: Transcriptional GFP fusion gene induction: dhs-19; format: in vivo, C. elegans; conditions: n = 20
Description: as §1
as §2, with “significance. […]” for “significance.”

pgp-5::gfp [24] = assay: pgp-5::gfp induction in germline translation-defective eft-3(q145);pgp-5::gfp strain (RNAi, bile acid rescue, microbes); format: in vivo, C. elegans; conditions: bile acids at 100 uM
Description: Secondary screens were similarly done on the eft-3(q145):pgp-5::gfp strain.
To explore the types of lipids that the dhs-28. daf-22 pathway generates to regulate the induction of pgp-5::gfp expression in translation-defective animals, we tested whether defects in CAs-28 or daf-22-mediated lipid/bile acid biosynthesis could be rescued for pgp-5::gfp induction by addition of purified mammalian bile acids (FIG. 9B). […] These bile acids preparations are 95% pure.

C. elegans [25] = assay: Effect of microbes on C. elegans growth; format: in vivo; conditions: C. elegans grown on the microbe
Description: 16S ribosomal sequence was amplified using specific primers and sequenced to identify the microbes. BHI media as well as plates was used for culturing and testing the effect of Enterococcus faecalis and E. faecium on worms. For Saccharomyces boulardi, YPD media was used for growing the yeast and a concentrated culture was added to SK media. For Lactobacillus spp, Lactobacilli broth was used for growing and then a concentrated culture was added to SK media. SK media was used for all the other microbes.
Many of the bacterial strains allowed normal growth of C. elegans, but some caused developmental arrest, perhaps due to toxins or virulence factors that disrupt essential C. elegans processes.

Molecule: CN[C@@H]1[C@@H](O)[C@@H](O[C@@H]2[C@@H](O)[C@H](O[C@H]3O[C@H]([C@@H](C)O)[C@@H](O)[C@H](O)[C@H]3N)[C@@H](N)C[C@H]2N)OC[C@]1(C)O [G418]
- % Animals with gfp induction [1]: 80 (n = 20) %
- % Animals with gfp induction [2]: 0 (n = 20) %
- % Animals with gfp induction [3]: 0 (n = 20) %
- % Animals with gfp induction [4]: 0 (n = 20) %
- % Animals with gfp induction [5]: 0 (n = 20) %
- % Animals with gfp induction [6]: 0 (n = 20) %
- % Animals with gfp induction [7]: 0 (n = 20) %
- % Animals with gfp induction [8]: 80 (n = 20) %
- % Animals with gfp induction [9]: 0 (n = 20) %
- % Animals with gfp induction [10]: 0 (n = 20) %
- % Animals with gfp induction [11]: 0 (n = 20) %
- % Animals with gfp induction [12]: 100 (n = 20) %
- % Animals with gfp induction [13]: 0 (n = 20) %
- % Animals with gfp induction [14]: 100 (n = 20) %
- % Animals with gfp induction [15]: 65 (n = 20) %
- % Animals with gfp induction [16]: 0 (n = 20) %
- % Animals with gfp induction [17]: 0 (n = 20) %
- % Animals with gfp induction [18]: 0 (n = 20) %
- % Animals with gfp induction [19]: 0 (n = 20) %
- % Animals with gfp induction (pgp-5::gfp [20]): 100 (n = 20) %
- % Animals with gfp induction [21]: 0 (n = 20) %
- animals that grew to adulthood (C. elegans [22]): > 40%
- % Animals with gfp induction [23]: 0 (n = 20) %

Molecule: C[C@H](CCC(=O)O)[C@H]1CC[C@H]2[C@@H]3[C@H](O)C[C@@H]4C[C@H](O)CC[C@]4(C)[C@H]3CC[C@]12C [chenodeoxycholic acid]
- rescue of the defect in pgp-5::gfp induction caused by daf-22 or dhs-28 gene inactivations (pgp-5::gfp [24]): rescued the defect in induction of pgp-5::gfp

Molecule: CC(CCC(=O)NCC(=O)O)C1CCC2C3C(O)CC4CC(O)CCC4(C)C3CCC12C (stereo not drawn) [glycochenodeoxycholic acid]
- rescue of the defect in pgp-5::gfp induction caused by daf-22 or dhs-28 gene inactivations (pgp-5::gfp [24]): rescued the defect in induction of pgp-5::gfp

Molecule: Lactobacillus plantarum
- % Animals that reach adulthood (C. elegans [25]): 0%
- developmental outcome on the microbe (arrest stage, slow growth, normal) (C. elegans [25]): slow growth
